Reference: patent US9040528B2, “Chemical compounds 542” (AstraZeneca AB, priority 2008, dated 2015)

What follows are compounds tested against Escherichia coli DNA gyrase A/B tetramer (Escherichia coli (strain K12), UniProt P0AES4+P0AES6) (assay: DNA gyrase supercoiling activity fluorescence polarisation assay). Settings: 5 nM enzyme, relaxed plasmid, 0.3 mM ATP, ambient temperature; read-out: E. coli DNA gyrase supercoiling IC50.
Type: biochemical
Method in brief: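 Supercoiling reactions quenched with 40 nM 5′-BODIPY-FL triplex-forming oligonucleotide probe in pH 3.5 NaCl/sodium acetate buffer; after 60 min, fluorescence anisotropy read (ex 485/em 535 nm). IC50 by nonlinear regression, normalised to 0.8% DMSO (100% activity) and 5 μM ciprofloxacin (0% activity).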
In the case of `Cc1ncn(-c2noc3c(F)c4c(cc23)CC2(C(=O)NC(=O)NC2=O)[C@H]2[C@H](C)O[C@H](C)CN42)n1` (relative stereo) [Example 54, (2R,4S,4aS)-rel-11-fluoro-2,4-dimethyl-8-(3-methyl-1H-1,2,4-triazol-1-yl)-1,2,4,4a-tetrahydro-2′H,6H-spiro[1,4-oxazino[4,3-a][1,2]oxazolo[4,5-g]quinoline-5,5′-pyrimidine]-2′,4′,6′(1′H,3′H)-trione], the IC50 is reported as 2000 nM.
For `C[C@@H]1CN2c3c(cc4c(-n5cnc(C#N)n5)noc4c3F)CC3(C(=O)NC(=O)NC3=O)[C@H]2[C@H](C)O1` (relative stereo) [Example 55, 1-[(2R,4S,4aS)-rel-11-fluoro-2,4-dimethyl-2′,4′,6′-trioxo-1,1′,2,3′,4,4′,4a,6′-octahydro-2′H,6H-spiro[1,4-oxazino[4,3-a][1,2]oxazolo[4,5-g]quinoline-5,5′-pyrimidin]-8-yl]-1H-1,2,4-triazole-3-carbonitrile], the IC50 was 2600 nM.
`C[C@@H]1CN2c3c(cc4c(-n5ccnn5)noc4c3F)CC3(C(=O)NC(=O)NC3=O)[C@H]2[C@H](C)O1` (relative stereo) [Example 57, (2R,4S,4aS)-rel-11-fluoro-2,4-dimethyl-8-(1H-1,2,3-triazol-1-yl)-1,2,4,4a-tetrahydro-2′H,6H-spiro[1,4-oxazino[4,3-a][1,2]oxazolo[4,5-g]quinoline-5,5′-pyrimidine]-2′,4′,6′(1′H,3′H)-trione] showed an IC50 of 1500 nM.
`C[C@@H]1CN2c3c(cc4c(-n5ccnc5)noc4c3F)CC3(C(=O)NC(=O)NC3=O)[C@H]2[C@H](C)O1` (relative stereo) [Example 58, (2R,4S,4aS)-rel-11-fluoro-8-(1H-imidazol-1-yl)-2,4-dimethyl-1,2,4,4a-tetrahydro-2′H,6H-spiro[1,4-oxazino[4,3-a][1,2]oxazolo[4,5-g]quinoline-5,5′-pyrimidine]-2′,4′,6′(1′H,3′H)-trione] showed an IC50 of 500 nM.
With `C[C@@H]1CN2c3c(cc4c(-n5cnc(C(F)(F)F)c5)noc4c3F)CC3(C(=O)NC(=O)NC3=O)[C@H]2[C@H](C)O1` (relative stereo) [Example 59, (2R,4S,4aS)-rel-11-fluoro-2,4-dimethyl-8-[4-(trifluoromethyl)-1H-imidazol-1-yl]-1,2,4,4a-tetrahydro-2′H,6H-spiro[1,4-oxazino[4,3-a][1,2]oxazolo[4,5-g]quinoline-5,5′-pyrimidine]-2′,4′,6′(1′H,3′H)-trione] the IC50 was 6600 nM.
`Cc1cnn(-c2noc3c(F)c4c(cc23)CC2(C(=O)NC(=O)NC2=O)[C@H]2[C@H](C)O[C@H](C)CN42)c1` (relative stereo) [Example 60, (2R,4S,4aS)-rel-11-fluoro-2,4-dimethyl-8-(4-methyl-1H-pyrazol-1-yl)-1,2,4,4a-tetrahydro-2′H,6H-spiro[1,4-oxazino[4,3-a][1,2]oxazolo[4,5-g]quinoline-5,5′-pyrimidine]-2′,4′,6′(1′H,3′H)-trione] was tested, and the IC50 was 1200 nM.
Work on `C[C@@H]1CN2c3c(cc4c(-n5cc(Cl)cn5)noc4c3F)CC3(C(=O)NC(=O)NC3=O)[C@H]2[C@H](C)O1` (relative stereo) [Example 61, (2R,4S,4aS)-rel-8-(4-chloro-1H-pyrazol-1-yl)-11-fluoro-2,4-dimethyl-1,2,4,4a-tetrahydro-2′H,6H-spiro[1,4-oxazino[4,3-a][1,2]oxazolo[4,5-g]quinoline-5,5′-pyrimidine]-2′,4′,6′(1′H,3′H)-trione] yielded an IC50 of 9300 nM.
`CSc1noc2c(F)c3c(cc12)CC1(C(=O)NC(=O)NC1=O)[C@H]1[C@H](C)O[C@H](C)CN31` (relative stereo) [Example 62, (2R,4S,4aS)-rel-11-fluoro-2,4-dimethyl-8-(methylsulfanyl)-1,2,4,4a-tetrahydro-2′H,6H-spiro[1,4-oxazino[4,3-a][1,2]oxazolo[4,5-g]quinoline-5,5′-pyrimidine]-2′,4′,6′(1′H,3′H)-trione] gave an IC50 of 900 nM.
In the case of `Cc1cc(C)n(-c2noc3c(F)c4c(cc23)CC2(C(=O)NC(=O)NC2=O)[C@H]2[C@H](C)O[C@H](C)CN42)n1` (relative stereo) [Example 63, (2R,4S,4aS)-rel-8-(3,5-dimethyl-1H-pyrazol-1-yl)-11-fluoro-2,4-dimethyl-1,2,4,4a-tetrahydro-2′H,6H-spiro[1,4-oxazino[4,3-a][1,2]oxazolo[4,5-g]quinoline-5,5′-pyrimidine]-2′,4′,6′(1′H,3′H)-trione], the IC50 is reported as 2700 nM.
Work on `C[C@@H]1CN2c3c(cc4c(-c5cn[nH]c5)noc4c3F)CC3(C(=O)NC(=O)NC3=O)[C@H]2[C@H](C)O1` (relative stereo) [Example 64, (2R,4S,4aS)-rel-11-fluoro-2,4-dimethyl-8-(1H-pyrazol-4-yl)-1,2,4,4a-tetrahydro-2′H,6H-spiro[1,4-oxazino[4,3-a][1,2]oxazolo[4,5-g]quinoline-5,5′-pyrimidine]-2′,4′,6′(1′H,3′H)-trione] yielded an IC50 of 800 nM.
`Cc1nc(-c2noc3c(F)c4c(cc23)CC2(C(=O)NC(=O)NC2=O)[C@H]2[C@H](C)O[C@H](C)CN42)co1` (relative stereo) [Example 65, (2R,4S,4aS)-rel-11-fluoro-2,4-dimethyl-8-(2-methyl-1,3-oxazol-4-yl)-1,2,4,4a-tetrahydro-2′H,6H-spiro[1,4-oxazino[4,3-a][1,2]oxazolo[4,5-g]quinoline-5,5′-pyrimidine]-2′,4′,6′(1′H,3′H)-trione] gave an IC50 of 1100 nM.
Work on `Cc1cc(-c2noc3c(F)c4c(cc23)CC2(C(=O)NC(=O)NC2=O)[C@H]2[C@H](C)O[C@H](C)CN42)no1` (relative stereo) [Example 66, (2R,4S,4aS)-rel-11-fluoro-2,4-dimethyl-8-(5-methyl-1,2-oxazol-3-yl)-1,2,4,4a-tetrahydro-2′H,6H-spiro[1,4-oxazino[4,3-a][1,2]oxazolo[4,5-g]quinoline-5,5′-pyrimidine]-2′,4′,6′(1′H,3′H)-trione] yielded an IC50 of 400 nM.
In the case of `Cc1noc(C)c1-c1noc2c(F)c3c(cc12)CC1(C(=O)NC(=O)NC1=O)[C@H]1[C@H](C)O[C@H](C)CN31` (relative stereo) [Example 67, (2R,4S,4aS)-rel-8-(3,5-dimethyl-1,2-oxazol-4-yl)-11-fluoro-2,4-dimethyl-1,2,4,4a-tetrahydro-2′H,6H-spiro[1,4-oxazino[4,3-a][1,2]oxazolo[4,5-g]quinoline-5,5′-pyrimidine]-2′,4′,6′(1′H,3′H)-trione], the IC50 is reported as 3200 nM.
In the case of `C[C@@H]1CN2c3c(cc4c(-c5nccn5C)noc4c3F)CC3(C(=O)NC(=O)NC3=O)[C@@H]2[C@H](C)O1` (relative stereo) [Example 68, (2R,4S,4aR)-rel-11-fluoro-2,4-dimethyl-8-(1-methyl-1H-imidazol-2-yl)-1,2,4,4a-tetrahydro-2′H,6H-spiro[1,4-oxazino[4,3-a][1,2]oxazolo[4,5-g]quinoline-5,5′-pyrimidine]-2′,4′,6′(1′H,3′H)-trione], the IC50 is reported as 700 nM.
With `C[C@@H]1CN2c3c(cc4c(-c5cn(C)cn5)noc4c3F)CC3(C(=O)NC(=O)NC3=O)[C@H]2[C@H](C)O1` (relative stereo) [Example 69, (2R,4S,4aS)-rel-11-fluoro-2,4-dimethyl-8-(1-methyl-1H-imidazol-4-yl)-1,2,4,4a-tetrahydro-2′H,6H-spiro[1,4-oxazino[4,3-a][1,2]oxazolo[4,5-g]quinoline-5,5′-pyrimidine]-2′,4′,6′(1′H,3′H)-trione] the IC50 was 17000 nM.
